Laboratory results taken from ChEMBL document CHEMBL1201862, “PubChem BioAssay data set” (2004).
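Each compound was tested at five concentrations against cells in 96-well plates for 48 hours. Here, GI50 denotes the concentration required for 50% inhibition of growth.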 Active and inactive are the calls of the source. No stated cut-off is given here; in the data, active = GI50 up to about 1.1 µM and inactive = higher.

Experiments:
Assay in all cases: inhibition of tumour cell growth, NCI panel, 48 h
KM12 = system: KM12
SNB-19 = system: SNB-19
OVCAR-5 = system: OVCAR-5
TK-10 = system: TK-10
M14 = system: M14
NCI-H460 = system: NCI-H460
UACC-257 = system: UACC-257
EKVX = system: EKVX
A498 = system: A498
NCI-H522 = system: NCI-H522
T47D = system: T47D
HCT-116 = system: HCT-116
DU-145 = system: DU-145
CAKI-1 = system: CAKI-1
IGROV-1 = system: IGROV-1
MCF7 = system: MCF7
UACC-62 = system: UACC-62
HCT-15 = system: HCT-15
SW-620 = system: SW-620
MDA-MB-435 = system: MDA-MB-435
786-0 = system: 786-0
OVCAR-4 = system: OVCAR-4
CCRF-CEM = system: CCRF-CEM
Hs-578T = system: Hs-578T
NCI-H23 = system: NCI-H23
SF-268 = system: SF-268
HT-29 = system: HT-29
RXF 393 = system: RXF 393
K562 = system: K562
RPMI-8226 = system: RPMI-8226
NCI/ADR-RES = system: NCI/ADR-RES
SNB-75 = system: SNB-75
OVCAR-8 = system: OVCAR-8
HOP-62 = system: HOP-62
SK-MEL-2 = system: SK-MEL-2
MOLT-4 = system: MOLT-4
SF-295 = system: SF-295
A549 = system: A549
HCC 2998 = system: HCC 2998
ACHN = system: ACHN
MDA-MB-231 = system: MDA-MB-231
SK-MEL-5 = system: SK-MEL-5
PC-3 = system: PC-3
BT-549 = system: BT-549
COLO 205 = system: COLO 205
OVCAR-3 = system: OVCAR-3
U-251 = system: U-251
Malme-3M = system: Malme-3M
UO-31 = system: UO-31
SK-MEL-28 = system: SK-MEL-28
SK-OV-3 = system: SK-OV-3
HOP-92 = system: HOP-92
MDA-N = system: MDA-N
SN12C = system: SN12C
LOX IMVI = system: LOX IMVI
HL-60 = system: HL-60
NCI-H226 = system: NCI-H226
SF-539 = system: SF-539

Measured: GI50

Cc1noc(-c2ccc(C(=O)O)[nH]2)c1Br
> 100 µM: HCT-15
inactive: KM12 > 100 µM | SNB-19 37.4 µM | OVCAR-5 > 100 µM | TK-10 31.5 µM | M14 > 100 µM | NCI-H460 > 100 µM | UACC-257 > 100 µM | EKVX 30.9 µM | A498 > 100 µM | NCI-H522 39.7 µM | T47D 17.3 µM | HCT-116 45.6 µM | DU-145 37.9 µM | CAKI-1 34.2 µM | IGROV-1 16.4 µM | MCF7 50.1 µM | UACC-62 64.6 µM | SW-620 68.9 µM | MDA-MB-435 > 100 µM | 786-0 29 µM | OVCAR-4 31.8 µM | CCRF-CEM > 100 µM | Hs-578T 42.3 µM | NCI-H23 55.6 µM | SF-268 46.1 µM | HT-29 > 100 µM | RXF 393 23.4 µM | K562 > 100 µM | RPMI-8226 > 100 µM | NCI/ADR-RES 50.5 µM | SNB-75 26.6 µM | OVCAR-8 15.8 µM | HOP-62 22.5 µM | SK-MEL-2 87.9 µM | MOLT-4 > 100 µM | SF-295 28.1 µM | A549 45.2 µM | HCC 2998 65 µM | ACHN 38.3 µM | MDA-MB-231 > 100 µM | SK-MEL-5 > 100 µM | PC-3 > 100 µM | BT-549 > 100 µM | COLO 205 26.1 µM | OVCAR-3 23.4 µM | U-251 34.8 µM | Malme-3M 69.8 µM | UO-31 71.6 µM | SK-MEL-28 > 100 µM | SK-OV-3 38.6 µM | HOP-92 12.2 µM | MDA-N > 100 µM

Cc1cn([C@@H]2O[C@H](CO[Si](C)(C)C(C)(C)C)[C@]3(O[C@H]3C(=O)NN)[C@H]2O[Si](C)(C)C(C)(C)C)c(=O)[nH]c1=O
4.32 µM: HCT-15
inactive: SN12C 5.79 µM | KM12 7.67 µM | SNB-19 7.66 µM | OVCAR-5 8.55 µM | TK-10 12.7 µM | M14 7.18 µM | LOX IMVI 3.33 µM | NCI-H460 4.31 µM | UACC-257 13 µM | EKVX 8.61 µM | A498 16.9 µM | NCI-H522 2.2 µM | T47D 2.36 µM | HCT-116 4.08 µM | DU-145 6.31 µM | CAKI-1 11.6 µM | IGROV-1 6.22 µM | MCF7 4.26 µM | UACC-62 10.6 µM | HL-60 3.13 µM | SW-620 5.73 µM | NCI-H226 12 µM | SF-539 4.75 µM | MDA-MB-435 7.11 µM | 786-0 4.06 µM | OVCAR-4 6.4 µM | CCRF-CEM 2.42 µM | Hs-578T 2.72 µM | NCI-H23 14.1 µM | SF-268 3.59 µM | HT-29 2.9 µM | K562 2.75 µM | RPMI-8226 4.29 µM | NCI/ADR-RES 15.6 µM | SNB-75 7.98 µM | OVCAR-8 6.62 µM | HOP-62 14.4 µM | SK-MEL-2 6.37 µM | MOLT-4 2.04 µM | SF-295 7.69 µM | A549 6.03 µM | HCC 2998 3.13 µM | ACHN 5.86 µM | MDA-MB-231 3.57 µM | SK-MEL-5 10.4 µM | PC-3 4.6 µM | BT-549 5.38 µM | COLO 205 2.64 µM | OVCAR-3 3.76 µM | U-251 4.23 µM | Malme-3M 3.39 µM | UO-31 14.2 µM | SK-MEL-28 10.3 µM | SK-OV-3 18.1 µM | HOP-92 6.24 µM | MDA-N 5.78 µM
